The target of series [1] is T1, Solute carrier organic anion transporter family member 1B1 (Homo sapiens, UniProt Q9Y6L6).
T1 sequence (Q9Y6L6 whole entry): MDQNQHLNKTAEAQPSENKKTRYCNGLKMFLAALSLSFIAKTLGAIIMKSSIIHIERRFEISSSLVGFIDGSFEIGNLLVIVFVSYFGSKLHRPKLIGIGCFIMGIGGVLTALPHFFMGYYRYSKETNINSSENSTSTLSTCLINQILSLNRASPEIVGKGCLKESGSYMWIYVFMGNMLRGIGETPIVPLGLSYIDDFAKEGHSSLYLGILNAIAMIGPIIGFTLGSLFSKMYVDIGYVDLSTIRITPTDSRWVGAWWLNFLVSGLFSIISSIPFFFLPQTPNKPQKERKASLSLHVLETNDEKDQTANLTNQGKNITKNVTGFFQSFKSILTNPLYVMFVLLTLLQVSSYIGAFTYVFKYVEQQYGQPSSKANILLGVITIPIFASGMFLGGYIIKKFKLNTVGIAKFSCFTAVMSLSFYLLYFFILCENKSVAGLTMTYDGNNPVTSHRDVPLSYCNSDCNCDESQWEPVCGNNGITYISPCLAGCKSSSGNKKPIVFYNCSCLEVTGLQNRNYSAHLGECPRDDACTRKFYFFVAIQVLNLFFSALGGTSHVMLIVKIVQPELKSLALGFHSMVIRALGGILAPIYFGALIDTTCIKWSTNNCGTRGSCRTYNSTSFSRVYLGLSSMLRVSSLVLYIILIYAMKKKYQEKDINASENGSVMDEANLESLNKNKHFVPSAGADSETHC
The series can be described thus: (§1) TP_TRANSPORTER: uptake in Xenopus laevis oocytes. It is filed as functional, cell-based. The settings on record: oocyte.

Substrate in series [2]: N[C@@H](Cc1cc(I)c(Oc2ccc(O)c(I)c2)c(I)c1)C(=O)O
The series is described as §1. The format is functional, cell-based, Oocyte.

Substrate in series [3]: N[C@@H](Cc1cc(I)c(Oc2cc(I)c(O)c(I)c2)c(I)c1)C(=O)O
Described as §1. It is filed as functional, cell-based, Oocyte.

As to `CCCCC[C@H](O)/C=C/[C@H]1OC(O)C[C@H](O)[C@@H]1C/C=C\CCCC(=O)O` (stereo partly drawn) [THROMBOXANE B2], the Activity result in series [1] is “substrate [+]”.
The same measure, in the same setting: then `CCCCC/C=C\C\C=C/C=C/C=C/[C@@H](SC[C@H](N)C(=O)O)[C@@H](O)CCCC(=O)O` [LEUKOTRIEN E4], with “substrate [+]”.
Same read-out and setting: under `C[C@]12CC[C@@H]3c4ccc(O)cc4CC[C@H]3[C@@H]1CC[C@@H]2O[C@@H]1O[C@H](C(=O)O)[C@@H](O)[C@H](O)[C@H]1O` [ESTRADIOL 17B GLUCURONIDE] stands “substrate [+]”; under `CCCCC/C=C\C\C=C/C=C/C=C/[C@@H](SC[C@@H](NC(=O)CC[C@H](N)C(=O)O)C(=O)NCC(=O)O)[C@@H](O)CCCC(=O)O` [LEUKOTRIEN C4], “substrate [+]”; under `CCCCC[C@H](O)/C=C/[C@H]1[C@H](O)CC(=O)[C@@H]1C/C=C\CCCC(=O)O` [DINOPROSTONE], “substrate [+]”.
Same read-out and setting: under `C[C@]12CC[C@H](OS(=O)(=O)O)CC1=CC[C@@H]1[C@@H]2CC[C@]2(C)C(=O)CC[C@@H]12` [PRASTERONE SULFURIC ACID] stands “substrate [+]”.

B1: Solute carrier organic anion transporter family member 1B1 (Homo sapiens) (protein)
chain: MDQNQHLNKTAEAQPSENKKTRYCNGLKMFLAALSLSFIAKTLGAIIMKSSIIHIERRFEISSSLVGFIDGSFEIGNLLVIVFVSYFGSKLHRPKLIGIGCFIMGIGGVLTALPHFFMGYYRYSKETNINSSENSTSTLSTCLINQILSLNRASPEIVGKGCLKESGSYMWIYVFMGNMLRGIGETPIVPLGLSYIDDFAKEGHSSLYLGILNAIAMIGPIIGFTLGSLFSKMYVDIGYVDLSTIRITPTDSRWVGAWWLNFLVSGLFSIISSIPFFFLPQTPNKPQKERKASLSLHVLETNDEKDQTANLTNQGKNITKNVTGFFQSFKSILTNPLYVMFVLLTLLQVSSYIGAFTYVFKYVEQQYGQPSSKANILLGVITIPIFASGMFLGGYIIKKFKLNTVGIAKFSCFTAVMSLSFYLLYFFILCENKSVAGLTMTYDGNNPVTSHRDVPLSYCNSDCNCDESQWEPVCGNNGITYISPCLAGCKSSSGNKKPIVFYNCSCLEVTGLQNRNYSAHLGECPRDDACTRKFYFFVAIQVLNLFFSALGGTSHVMLIVKIVQPELKSLALGFHSMVIRALGGILAPIYFGALIDTTCIKWSTNNCGTRGSCRTYNSTSFSRVYLGLSSMLRVSSLVLYIILIYAMKKKYQEKDINASENGSVMDEANLESLNKNKHFVPSAGADSETHC
Broadly, the Km is the substrate concentration at which the rate is half of its maximum. Turning to B1, the Km in series [2] was 2.7 µM; in series [3] it was 3 µM.

The values above are taken from ChEMBL document CHEMBL2073974, “Identification of a novel gene family encoding human liver-specific organic anion transporter LST-1” (J Biol Chem, 1999).
